Like-named read-outs stand apart in the source and are kept apart here.
System: gastrischen Drüsenschläuche
Assay: 14C-aminopyrine accumulation in isolated gastric glands (inhibition of gastric acid secretion)
Assay type: cell-based, Kaninchen
Settings: read-out: IC50 Inhibition der stimulierten AP-Akkumulation
Description: Methode: Die Hochdruckperfusion des […] wurde nach der Beschreibung von Berglindh und Obrink (1) und unter Anwendung einiger Modifikationen, wie sie an anderer Stelle berichtet werden (2), ausgeführt. Kaninchen (männlich und weiblich, 2 - 3 kg) wurden schmerzfrei unter Narkose durch zervikale Dislokation getötet und der Magen wie in der Literatur berichtet perfundiert (1). Die Mukosa des Magenfundus wurde mit einem Schaber entfernt und mittels einer Schere zerkleinert. Die so erhaltenen Mukosafragmente wurden mit_1 mg/ml Kollagenase in einem Medium bestehend aus 100 mM NaCl, 5 mM KCI, 0,5 mM NaH2PO4, 1 mM Na2HPO4, 1 mM CaCl2, 1,5 mM MgCl2, 20 mM NaHCO3, 20 mM HEPES, 2mg/ml Glukose und 1 mg/ml Kaninchenalbumin für 30 - 45 min bei 37°C behandelt, wobei der pH des Gemisches mit Tris-Puffer auf 7,4 eingestellt war. Die Drüsenschläuche (gastric glands) wurden durch ein Nylonnetz zur Entfernung grober Fragmente filtriert und 3 mal mit Inkubationsmedium gespült. Anschließend wurden die Drüsenschläuche im Medium in einer Konzentration von 2 - 4 mg Trockengewicht/ml suspendiert.
Als Maß für die Fähigkeit der gastrischen Drüsenschläuche zur Säurebildung wurde die Akkumulation von ^14C-Aminopyrin (^14C-AP) bestimmt (3). Hierzu wurden Proben von 1 ml Drüsenschlauchsuspension mit ^14C-AP (1 µM, 200 000 cpm) und der zu testenden Verbindung inkubiert und für 20 - 30 min bei 37°C in einem schüttelnden Wasserbad behandelt. Anschließend wurden Histamin (100 µM), dbcAMP (0.3 oder 1 mM) oder Carbachol (100 µM) zugegeben, gefolgt von einer zweiten Inkubationsdauer von 30 - 45 min.. Die Inkubation wurde anschließend beendet durch Zentrifugiren der Proben für eine halbe Minute. Die überstehende Flüssigkeit wurde entfernt und die erhaltenen pellets in 1 ml NaOH gelöst. Proben der Pellets und des Flüssigkeitsüberstands wurden im Szintillationszähler gemessen. Das AP-Verhältnis der intraglandulären und extraglandulären Radioaktivität wurde nach Sack und Spenney (4) berechnet. Alle Bestimmungen wurden dreifach durchgeführt.

CCS(=O)(=O)N(C)[C@@H]1c2cc(C#N)ccc2OC(C)(C)[C@H]1O (relative stereo) [293B, trans-6-Cyano-4-(N-ethylsulfonyl-N-methylamino)-3-hydroxy-2,2-dimethyl-chroman]
IC50 (after Carbachol stimulation (100 µM)): 5 µM | IC50 (after Histamin stimulation (100 µM)): 20 µM | IC50 (after dbcAMP stimulation (0.3 or 1 mM)): 20 µM
